Reference: patent US20220257583A1, “Compositions and Methods for the Treatment of Intracranial Diseases” (Duke University, priority 2019, published 2022)

Assays:
S1P1 on T cells = experiment: S1P1 expression on T cells exposed to compound; assay type: cell-based
[1] = target: T1, β-arrestin 2 recruitment to activated β2V2R (Homo sapiens, UniProt P32121); experiment: DiscoveRx β-arrestin 2 recruitment assay (β2V2R, isoproterenol stimulation); assay type: cell-based; settings: 25 minutes pretreatment
T1 construct: host or cells: U2OS
Procedure: FIG. 13: The first 40 initial hits from the screening of a structurally diverse, drug-like compound (DDLC) library containing more than 3,500 unique molecules with binding activity against purified β-arrestin 2 were evaluated for β-arrestin 2 recruitment by DiscoveRx assay. DiscoveRx cells expressing chimeric β2-adrenergic receptor (β2AR) with C-terminal tail from vasopressin receptor 2 (β2V2R) that is known to bind β-arrestin 2 very tightly were employed in this assay. The DiscoveRx cells were pretreated with candidate compounds at 50 μM or DMSO (control) for 25 minutes followed by stimulation with isoproterenol (10 nM). Compound B29 inhibits more than 75% of β-arrestin 2 activity (red-dashed rectangle) induced by isoproterenol which is a receptor agonist (red bar graph).
FIG. 14: β-arrestin 2 recruitment to activated β2V2R. Testing B29 further, the DiscoveRx cells were pretreated with compound B29 at 1, 10, 50 μM or DMSO (control) for 25 minutes followed by stimulation with isoproterenol at various concentrations.
FIG. 20 is a graphic representation showing the effect of putative βarr2 binding compounds (21 hits) on βarr2 recruitment to agonist activated GPCR. DiscoveRx-U2OS cells exogenously expressing βarr2 and β2V2R were treated with each putative βarrestin binding compound at 50 μM for 30 min and then stimulated with agonist isoproterenol (10 nM) to induce recruitment of βarr. […]

[2] = test system: T-cells in IC CT2A-bearing mice; experiment: Bone marrow and blood T-cell counts in IC CT2A-bearing mice; assay type: in vivo; settings: intraperitoneally every 3 days (Days 3-18), counts 18 days after implantation
Excerpt: FIGS. 6F-6J: FIG. 6F: Representative flow cytometry plot depicting the frequency of S1P1 on the surface of T-cells in the bone marrow of C57BL/6 mice and S1P1 KI bearing IC CT2A tumor. FIG. 6G: S1P1 KI mice were implanted with IC CT2A tumors and treated with anti (α)-PD-1, 4-1BB agonist, or the combination of both (n=8 per group). FIG. 6H and FIG. 6I: Bone marrow (FIG. 6H) and blood (FIG. 6I) T-cell counts in n=8 control mice and n=8 IC CT2A-bearing mice administered control treatment or G-CSF intraperitoneally every 3 days following tumor implantation (Days 3-18). Counts were assessed 18 days following tumor implantation. FIG. 6J: IC CT2A IC mice were administered G-CSF, 4-1BB agonist, or the combination regimen of both drugs (n=8 per group). […] Data in FIG. 6H and FIG. 6I are shown as mean±s.e.m. P values and were determined by two-tailed, unpaired Student's t-test. Survivals in FIG. 6G and FIG. 6J were assessed by two-tailed generalized Wilcoxon test. P values for overall comparison are depicted. […]
Spleen, thymus, cervical lymph nodes, and long bones of the legs (femur and tibia) were collected at defined and/or humane endpoints, in accordance with protocol. […] Briefly, tissues were processed in RPMI, minced into single cell suspensions, cell-strained, counted, stained with antibodies, and analyzed via flow cytometry. […]

intracranial CT2A glioma = experiment: Survival of mice bearing intracranial CT2A glioma; assay type: in vivo; settings: IC CT2A mice, monotherapy
Procedure: FIGS. 6A-6E: Hindering S1P1 internalization abrogates T-cell sequestration in bone marrow. FIG. 6A: Relative sequestration of adoptively transferred CFSE-labeled T-cells within the bone marrow of CT2A IC recipient mice at 2 h (left) or 24 h (right) after transfer. As indicated, transferred cells were splenocytes either from control C57BL/6 donors (control) or from S1P1 stabilized knock-in (S1P1 KI) donors (n=5 recipient mice per group). […] FIG. 6B: T-cell counts in the bone marrow of n=10 intracranial CT2A-bearing wild-type C57BL/6 or n=11 S1P1 KI mice. Counts were assessed at 18 d following tumor implantation and are shown relative to baseline counts inn=6 tumor-naïve control wild-type or n=6 tumor-naïve S1P1 KI mice. Cumulative data from three experiments are depicted in FIG. 6B and FIG. 6C, Intracranial CT2A tumors were harvested from n=6 wild-type C57BL/6 (WT) or n=6 S1P1 KI mice at 18 d following tumor implantation. TILs were assessed by flow cytometry and the number of total T-cells per gram of tumor quantified. FIG. 6D: The frequency of activated effector) (CD44^hiCD62L^lo) T-cells in intracranial CT2A tumors from the same n=6 wild-type C57BL/6 (WT) or n=6 S1P1 KI mice in FIG. 6C was also quantified. […] P values in and were determined by two-tailed, unpaired Student's t-test. Survival in FIG. 6E was assessed by two-tailed, generalized Wilcoxon test. […]

T1 sequence (P32121 whole entry): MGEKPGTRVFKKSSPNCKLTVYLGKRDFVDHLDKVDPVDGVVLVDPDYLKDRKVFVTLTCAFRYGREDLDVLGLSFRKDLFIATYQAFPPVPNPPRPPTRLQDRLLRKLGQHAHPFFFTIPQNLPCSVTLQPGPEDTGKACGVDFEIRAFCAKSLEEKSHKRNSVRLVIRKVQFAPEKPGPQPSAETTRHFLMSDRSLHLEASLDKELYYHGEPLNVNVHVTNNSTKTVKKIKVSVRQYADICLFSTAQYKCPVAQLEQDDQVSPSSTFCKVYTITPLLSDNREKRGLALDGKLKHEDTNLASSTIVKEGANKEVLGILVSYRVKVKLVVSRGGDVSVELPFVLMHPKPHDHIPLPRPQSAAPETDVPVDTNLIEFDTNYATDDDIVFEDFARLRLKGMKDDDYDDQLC

In the case of `CN(C)c1n/c(=N/Cc2ccco2)ss1` [Compound C30, (Z)-3-((furan-2-ylmethyl)imino)-N,N-dimethyl-3H-1,2,4-dithiazol-5-amine], the “S1P1 expression level on T cells” value (S1P1 on T cells; higher concentrations of compound) is reported as “higher levels of S1P1 expression” and the “ability to inhibit BARR” value (S1P1 on T cells; initially screened compound, FIG. 12) is reported as “inhibit BARR”.

With `COc1cc(Cc2nccc3cc(OC)c(OC)cc23)c(C(C)=O)cc1OC` [Compound B29, 1-(2-((6,7-dimethoxyisoquinolin-1-yl)methyl)-4,5-dimethoxyphenyl)ethan-1-one] the inhibition at 50 µM ([1]; compound 50 μM, isoproterenol 10 nM, read-out: inhibition of β-arrestin 2 activity induced by isoproterenol) was over 75% and the “effect on isoproterenol titration curves of β-arrestin 2 recruitment” value ([1]; compound at 1, 10, 50 μM, isoproterenol at various concentrations) was “shifts the potency of agonist rightward and decreases maximal response in a dose dependent fashion”.

B1: G-CSF: granulocyte colony-stimulating factor, administered intraperitoneally every 3 days (protein, UniProt P09919 31-207, looked up)
Granulocyte …: TPLGPASSLPQSFLLKCLEQVRKIQGDGAALQEKLVSECATYKLCHPEELVLLGHSLGIPWAPLSSCPSQALQLAGCLSQLHSGLFLYQGLLQALEGISPELGPTLDTLQLDVADFATTIWQQMEELGMAPALQPTQGAMPAFASAFQRRAGGVLVASHLQSFLEVSYRVLRHLAQP
B1 was tested, and the “T-cell lymphopenia (blood T-cell counts)” value [2] was “reversed”, the “bone marrow T-cell counts” value [2] was “decreased” and the survival (intracranial CT2A glioma) was “did not to consistently impact survival”.
